Data published in PubChem BioAssay (NCI).
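GI50 = concentration required for 50% inhibition of growth. TGI: total growth inhibition.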

Legend:
Assay in all cases: DTP human tumour cell line panel, 384-well format
SNB-75 CNS = tested on: SNB-75 CNS
SN12C renal = tested on: SN12C renal
BT-549 breast = tested on: BT-549 breast
T-47D breast = tested on: T-47D breast
COLO 205 colon = tested on: COLO 205 colon
MOLT-4 leukemia = tested on: MOLT-4 leukemia
SK-MEL-5 melanoma = tested on: SK-MEL-5 melanoma
UACC-62 melanoma = tested on: UACC-62 melanoma
KM12 colon = tested on: KM12 colon
MDA-MB-435 melanoma = tested on: MDA-MB-435 melanoma
ACHN renal = tested on: ACHN renal
UO-31 renal = tested on: UO-31 renal
OVCAR-3 ovarian = tested on: OVCAR-3 ovarian
UACC-257 melanoma = tested on: UACC-257 melanoma
MDA-MB-231 breast = tested on: MDA-MB-231 breast
NCI/ADR-RES ovarian = tested on: NCI/ADR-RES ovarian
HS 578T breast = tested on: HS 578T breast
MDA-MB-468 breast = tested on: MDA-MB-468 breast
PC-3 prostate = tested on: PC-3 prostate
MCF7 breast = tested on: MCF7 breast
SF-268 CNS = tested on: SF-268 CNS
LOX IMVI melanoma = tested on: LOX IMVI melanoma
NCI-H460 NSCLC = tested on: NCI-H460 NSCLC
NCI-H226 lung = tested on: NCI-H226 lung
SW-620 colon = tested on: SW-620 colon
HL-60(TB) leukemia = tested on: HL-60(TB) leukemia
786-0 renal = tested on: 786-0 renal
SNB-19 CNS = tested on: SNB-19 CNS
U251 glioblastoma = tested on: U251 glioblastoma
IGROV1 ovarian = tested on: IGROV1 ovarian
A498 renal = tested on: A498 renal
SK-OV-3 ovarian = tested on: SK-OV-3 ovarian
M14 melanoma = tested on: M14 melanoma
OVCAR-8 ovarian = tested on: OVCAR-8 ovarian
OVCAR-5 ovarian = tested on: OVCAR-5 ovarian
DU-145 prostate = tested on: DU-145 prostate
NCI-H322M lung = tested on: NCI-H322M lung
A549 NSCLC = tested on: A549 NSCLC
RPMI-8226 leukemia = tested on: RPMI-8226 leukemia
HOP-92 NSCLC = tested on: HOP-92 NSCLC
OVCAR-4 ovarian = tested on: OVCAR-4 ovarian
EKVX NSCLC = tested on: EKVX NSCLC
CAKI-1 renal = tested on: CAKI-1 renal
HCT-15 colon = tested on: HCT-15 colon
SR leukemia = tested on: SR leukemia
HCT-116 colon = tested on: HCT-116 colon
TK-10 renal = tested on: TK-10 renal
NCI-H522 lung = tested on: NCI-H522 lung
SF-295 CNS = tested on: SF-295 CNS
NCI-H23 lung = tested on: NCI-H23 lung
MALME-3M melanoma = tested on: MALME-3M melanoma
RXF 393 renal = tested on: RXF 393 renal
HOP-62 NSCLC = tested on: HOP-62 NSCLC
SK-MEL-28 melanoma = tested on: SK-MEL-28 melanoma
SF-539 CNS = tested on: SF-539 CNS

How did the GI50 (SNB-75 CNS) turn out when N#CC[C@H](C1CCCC1)n1cc(-c2ncnc3[nH]ccc23)cn1 was run?
Its GI50 is 18.4 µM.

And the TGI (SNB-75 CNS)?
The TGI was 41.3 µM.

And the GI50 (SN12C renal)?
The GI50 was 18.7 µM.

And the TGI (SN12C renal)?
The TGI was 49.7 µM.

And the GI50 (BT-549 breast)?
The GI50 was 19.8 µM.

What about the TGI (BT-549 breast) of the same molecule?
Its TGI is 34.6 µM.

And the GI50 (T-47D breast)?
Its GI50 is 19.5 µM.

What about the TGI (T-47D breast) of the same molecule?
The TGI was 63.9 µM.

And the GI50 (COLO 205 colon)?
The GI50 was 24.7 µM.

What about the TGI (COLO 205 colon) of the same molecule?
Its TGI is 53.1 µM.

What about the GI50 (MOLT-4 leukemia) of the same molecule?
The GI50 was 18.3 µM.

What about the TGI (MOLT-4 leukemia) of the same molecule?
Its TGI is 46.1 µM.

And the GI50 (SK-MEL-5 melanoma)?
Its GI50 is 18.2 µM.

What about the TGI (SK-MEL-5 melanoma) of the same molecule?
The TGI was 33.1 µM.

And the GI50 (UACC-62 melanoma)?
The GI50 was 21.5 µM.

And the TGI (UACC-62 melanoma)?
The TGI was 41.7 µM.

And the GI50 (KM12 colon)?
The GI50 was 4.07 µM.

And the TGI (KM12 colon)?
Its TGI is > 100 µM.

What about the GI50 (MDA-MB-435 melanoma) of the same molecule?
The GI50 was 26.6 µM.

And the TGI (MDA-MB-435 melanoma)?
The TGI was 66.5 µM.

And the GI50 (ACHN renal)?
The GI50 was 21.1 µM.

And the TGI (ACHN renal)?
Its TGI is 50.9 µM.

And the GI50 (UO-31 renal)?
The GI50 was 18.1 µM.

What about the TGI (UO-31 renal) of the same molecule?
The TGI was 47.9 µM.

What about the GI50 (OVCAR-3 ovarian) of the same molecule?
Its GI50 is 25.8 µM.

And the TGI (OVCAR-3 ovarian)?
The TGI was 51.8 µM.

What about the GI50 (UACC-257 melanoma) of the same molecule?
The GI50 was 25.9 µM.

And the TGI (UACC-257 melanoma)?
The TGI was 68.5 µM.

And the GI50 (MDA-MB-231 breast)?
The GI50 was 16.4 µM.

And the TGI (MDA-MB-231 breast)?
The TGI was 40.3 µM.

What about the GI50 (NCI/ADR-RES ovarian) of the same molecule?
Its GI50 is 23.4 µM.

And the TGI (NCI/ADR-RES ovarian)?
Its TGI is 50.3 µM.

What about the GI50 (HS 578T breast) of the same molecule?
Its GI50 is 12.4 µM.

And the TGI (HS 578T breast)?
Its TGI is 26 µM.

What about the GI50 (MDA-MB-468 breast) of the same molecule?
Its GI50 is 23.2 µM.

And the TGI (MDA-MB-468 breast)?
The TGI was 53.5 µM.

What about the GI50 (PC-3 prostate) of the same molecule?
The GI50 was 25.7 µM.

What about the TGI (PC-3 prostate) of the same molecule?
The TGI was 58.1 µM.

What about the GI50 (MCF7 breast) of the same molecule?
Its GI50 is 25.9 µM.

What about the TGI (MCF7 breast) of the same molecule?
The TGI was 77.7 µM.

What about the GI50 (SF-268 CNS) of the same molecule?
The GI50 was 16.2 µM.

And the TGI (SF-268 CNS)?
Its TGI is 36.6 µM.

And the GI50 (LOX IMVI melanoma)?
Its GI50 is 19.1 µM.

What about the TGI (LOX IMVI melanoma) of the same molecule?
Its TGI is 35.8 µM.

And the GI50 (NCI-H460 NSCLC)?
The GI50 was 16 µM.

And the TGI (NCI-H460 NSCLC)?
The TGI was 46.7 µM.

What about the GI50 (NCI-H226 lung) of the same molecule?
Its GI50 is 5.75 µM.

What about the TGI (NCI-H226 lung) of the same molecule?
The TGI was 25 µM.

What about the GI50 (SW-620 colon) of the same molecule?
Its GI50 is 29.7 µM.

What about the TGI (SW-620 colon) of the same molecule?
The TGI was > 100 µM.

And the GI50 (HL-60(TB) leukemia)?
Its GI50 is 23.9 µM.

And the TGI (HL-60(TB) leukemia)?
The TGI was 38.8 µM.

And the GI50 (786-0 renal)?
The GI50 was 17.4 µM.

What about the TGI (786-0 renal) of the same molecule?
Its TGI is 43.9 µM.

And the GI50 (SNB-19 CNS)?
The GI50 was 30.6 µM.

What about the TGI (SNB-19 CNS) of the same molecule?
The TGI was 82.7 µM.

And the GI50 (U251 glioblastoma)?
Its GI50 is 28.4 µM.

And the TGI (U251 glioblastoma)?
The TGI was 71.8 µM.

What about the GI50 (IGROV1 ovarian) of the same molecule?
Its GI50 is 22.7 µM.

And the TGI (IGROV1 ovarian)?
The TGI was 84.4 µM.

And the GI50 (A498 renal)?
Its GI50 is 21.7 µM.

And the TGI (A498 renal)?
The TGI was 41.6 µM.

And the GI50 (SK-OV-3 ovarian)?
Its GI50 is 21 µM.

What about the TGI (SK-OV-3 ovarian) of the same molecule?
The TGI was 45.9 µM.

What about the GI50 (M14 melanoma) of the same molecule?
Its GI50 is 27.2 µM.

What about the TGI (M14 melanoma) of the same molecule?
Its TGI is 50.9 µM.

And the GI50 (OVCAR-8 ovarian)?
Its GI50 is 27.6 µM.

What about the TGI (OVCAR-8 ovarian) of the same molecule?
Its TGI is 75.8 µM.

What about the GI50 (OVCAR-5 ovarian) of the same molecule?
Its GI50 is 23.5 µM.

What about the TGI (OVCAR-5 ovarian) of the same molecule?
Its TGI is 48.7 µM.

And the GI50 (DU-145 prostate)?
The GI50 was 16 µM.

What about the TGI (DU-145 prostate) of the same molecule?
The TGI was 42.1 µM.

And the GI50 (NCI-H322M lung)?
The GI50 was 26.3 µM.

And the TGI (NCI-H322M lung)?
The TGI was 58.7 µM.

And the GI50 (A549 NSCLC)?
The GI50 was 18.3 µM.

And the TGI (A549 NSCLC)?
The TGI was 52.6 µM.

And the GI50 (RPMI-8226 leukemia)?
The GI50 was 19.4 µM.

What about the TGI (RPMI-8226 leukemia) of the same molecule?
The TGI was 34.6 µM.

And the GI50 (HOP-92 NSCLC)?
The GI50 was 22.2 µM.

And the TGI (HOP-92 NSCLC)?
The TGI was 56.3 µM.

What about the GI50 (OVCAR-4 ovarian) of the same molecule?
The GI50 was 29 µM.

And the TGI (OVCAR-4 ovarian)?
Its TGI is 51.2 µM.

And the GI50 (EKVX NSCLC)?
The GI50 was 20.9 µM.

What about the TGI (EKVX NSCLC) of the same molecule?
Its TGI is 66 µM.

What about the GI50 (CAKI-1 renal) of the same molecule?
The GI50 was 21.3 µM.

And the TGI (CAKI-1 renal)?
The TGI was 50.5 µM.

And the GI50 (HCT-15 colon)?
Its GI50 is 26.2 µM.

And the TGI (HCT-15 colon)?
Its TGI is 82.1 µM.

And the GI50 (SR leukemia)?
Its GI50 is 8.31 µM.

What about the TGI (SR leukemia) of the same molecule?
The TGI was 20.6 µM.

And the GI50 (HCT-116 colon)?
The GI50 was 23.5 µM.

What about the TGI (HCT-116 colon) of the same molecule?
The TGI was 63.4 µM.

And the GI50 (TK-10 renal)?
Its GI50 is 29 µM.

What about the TGI (TK-10 renal) of the same molecule?
Its TGI is 89.6 µM.

And the GI50 (NCI-H522 lung)?
The GI50 was 13.6 µM.

What about the TGI (NCI-H522 lung) of the same molecule?
The TGI was 29.5 µM.

What about the GI50 (SF-295 CNS) of the same molecule?
Its GI50 is 18.3 µM.

And the TGI (SF-295 CNS)?
Its TGI is 37.9 µM.

What about the GI50 (NCI-H23 lung) of the same molecule?
The GI50 was 17.1 µM.

And the TGI (NCI-H23 lung)?
The TGI was 32.8 µM.

What about the GI50 (MALME-3M melanoma) of the same molecule?
Its GI50 is 19 µM.

And the TGI (MALME-3M melanoma)?
Its TGI is 34.7 µM.

And the GI50 (RXF 393 renal)?
Its GI50 is 12.9 µM.

And the TGI (RXF 393 renal)?
The TGI was 30.4 µM.

What about the GI50 (HOP-62 NSCLC) of the same molecule?
Its GI50 is 18.7 µM.

And the TGI (HOP-62 NSCLC)?
Its TGI is 37.1 µM.

And the GI50 (SK-MEL-28 melanoma)?
The GI50 was 23 µM.

And the TGI (SK-MEL-28 melanoma)?
The TGI was 55.7 µM.

What about the GI50 (SF-539 CNS) of the same molecule?
Its GI50 is 19.7 µM.

What about the TGI (SF-539 CNS) of the same molecule?
The TGI was 42 µM.
